Laboratory results taken from patent publication USRE45666E1, “Preparation of hydrophilic pressure sensitive adhesives having optimized adhesive properties” (priority 2000, dated 2015).
Like-named read-outs stand apart in the source and are kept apart here.

How the values were obtained:
[1] = In vitro drug delivery rate across Carbosil membrane; assay type: in vitro ADME
Description: In vitro drug delivery rate determination from water-soluble PSA matrices was performed using human cadaver skin or a skin-imitating Carbosil membrane to protect the matrices from dissolving in the receptor solution. The patch was adhered to the center of a Carbosil membrane sheet of twice its area. The membrane margins were then wrapped around the sample. The back side of the packet was closely attached to a steel plate-holder to prevent direct contact of the matrix with the receptor solution. In a similar fashion, cadaver skin epidermis can be used instead of a Carbosil membrane. The holder with the wrapped sample was then submerged into an aqueous sink and in vitro drug delivery rate was determined using a USP rotating cylinder method paddle-over-disc. The rate of drug appearance rate in a receptor solution (0.15 M NaCl) at 35.0±0.5° C. was determined spectrophotometrically.

[2] = Styrene butadiene rubber matrix

CC(C)NCC(O)COc1cccc2ccccc12 (stereo not shown) [Propranolol]
Release rate from hydrophobic matrices [2]: 56 ± 4 μg/cm^2h | Delivery rate from hydrophilic matrix via Carbosil ([1]; hydrophilic PVP-PEG matrix): 118 ± 25 μg/cm^2h

Clc1cccc(Cl)c1N=C1NCCN1 [Clonidine]
Release rate from hydrophobic matrices (PIB matrix (Catapress ® TTS)): 1.6 ± 0.2 μg/cm^2h | Delivery rate from hydrophilic matrix via Carbosil ([1]; hydrophilic PVP-PEG matrix): 5 ± 2 μg/cm^2h

O=[N+]([O-])OCC(CO[N+](=O)[O-])O[N+](=O)[O-] [Nitroglycerin]
Delivery rate from hydrophilic matrix via Carbosil [1]: 160 ± 40 μg/cm^2h

Silabolin
Release rate from hydrophobic matrices [2]: 16 ± 7 μg/cm^2h | Delivery rate from hydrophilic matrix via Carbosil ([1]; hydrophilic PVP-PEG matrix): 131 ± 30 μg/cm^2h
